Read-outs that look alike come from different tables or passages of the source.
How the values were obtained:
Staphylococcus aureus = experiment: Antibacterial disc growth inhibition test, S. aureus; assay type: cell-based
[1] = tested on: chloroquine-resistant Plasmodium falciparum strain FcB1; experiment: Activity against erythrocytic stages of cultured P. falciparum (LDH assay); assay type: cell-based; conditions: for IC50: read-out: FCB1 of P. falciparum IC50; for Antiplasmodial activity against FcB1 P. falciparum (in words): in vitro
Description: The antiplasmodial activity was studied in vitro against the chloroquine-resistant Plasmodium falciparum strain FcB1 by a micromethod using the lactate deshydrogenase (LDH) assay (Makler and Hinrichs). Parasites were cultivated using the method of Trager and Jensen. Erythrocytes infected with P. falciparum (ring stage, 1% of parasitaemia) were re-suspended in complete culture medium at a haematocrit of 1.5%. The suspension was distributed in 96-well microtitre plates (200 μL per well). Drug testing was performed in triplicate. For each assay, a parasite culture was incubated with the drug for 48 h in 5% CO2 at 95% relative humidity, and frozen until the biochemical assay could be run. After defrosting, a 20 μL sub-sample of the contents of each well was mixed with 100 μL of a substrate solution containing 20 mg/mL of lithium L-lactate (Sigma), 5.5 mg/mL of TRIS (Sigma), and 3.7 mg/mL of 3-acetylpyridine adenine dinucleotide (APAD; Sigma), in the well of another microtitre plate. After incubation for 30 min, 25 μL of a mixture of NBT (1.6 mg/mL; Sigma) and PES (0.1 mg/mL; Sigma) were added to each well. After a further 35 min of incubation, the reaction was stopped by the addition of 25% acetic acid (25 μL per well). Accumulation of the reduced form of APAD was measured at λ = 650 nm, using a spectrophotometer (microplate reader, Metertech). IC50 values were determined graphically in a concentration versus percent inhibition curve.

Pfnek-1 = Pfnek-1 (Plasmodium falciparum, UniProt Q8I5D5); experiment: Pfnek-1 protein kinase assay (33P incorporation in β-casein); assay type: biochemical
Chain of Pfnek-1 (Q8I5D5 entry or part of it): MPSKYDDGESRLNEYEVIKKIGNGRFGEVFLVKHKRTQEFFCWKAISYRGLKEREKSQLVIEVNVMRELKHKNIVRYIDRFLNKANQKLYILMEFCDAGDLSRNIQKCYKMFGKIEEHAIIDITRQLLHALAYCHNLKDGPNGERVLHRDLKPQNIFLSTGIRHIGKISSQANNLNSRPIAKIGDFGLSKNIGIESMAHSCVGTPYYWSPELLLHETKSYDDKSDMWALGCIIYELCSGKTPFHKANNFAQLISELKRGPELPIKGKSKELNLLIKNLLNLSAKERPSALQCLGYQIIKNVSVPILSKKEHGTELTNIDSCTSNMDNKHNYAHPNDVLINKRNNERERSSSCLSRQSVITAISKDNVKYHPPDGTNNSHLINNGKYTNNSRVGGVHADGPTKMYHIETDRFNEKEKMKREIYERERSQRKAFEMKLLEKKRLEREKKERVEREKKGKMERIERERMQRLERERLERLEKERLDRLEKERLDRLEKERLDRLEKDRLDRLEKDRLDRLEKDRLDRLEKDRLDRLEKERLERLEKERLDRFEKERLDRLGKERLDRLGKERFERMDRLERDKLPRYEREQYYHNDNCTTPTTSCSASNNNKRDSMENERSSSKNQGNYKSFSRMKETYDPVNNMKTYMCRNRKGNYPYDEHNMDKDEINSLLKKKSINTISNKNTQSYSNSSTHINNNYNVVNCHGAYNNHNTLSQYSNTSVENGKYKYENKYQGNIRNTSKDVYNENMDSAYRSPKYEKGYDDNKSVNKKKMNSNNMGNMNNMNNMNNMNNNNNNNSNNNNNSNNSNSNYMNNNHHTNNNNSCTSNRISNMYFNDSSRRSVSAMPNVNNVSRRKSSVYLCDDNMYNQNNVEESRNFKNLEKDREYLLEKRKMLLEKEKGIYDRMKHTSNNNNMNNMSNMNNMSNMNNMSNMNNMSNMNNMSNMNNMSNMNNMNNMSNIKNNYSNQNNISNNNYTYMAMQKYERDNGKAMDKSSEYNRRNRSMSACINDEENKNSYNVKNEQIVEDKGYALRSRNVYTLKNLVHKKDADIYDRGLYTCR
Description: A GST-Pfnek-1 fusion protein was purified from the Escherichia coli BL21 strain carrying a Pfnek-1 expression plasmid harbouring an ampicillin resistance cassette (bacteria kindly provided by D. Dorin, INSERM 511) as described by Dorin et al.. Pfnek-1 kinase activity was determined by measuring the ^33P incorporation in ß-caseine using γ[^33P]-ATP.
Briefly, test compounds were dissolved in DMSO and diluted in 20 mM Tris, pH 7.5 20 mM MgCl2, 10 mM NaF and 10 mM ATP. β-casein (3 mg/mL) and γ[^33P]-ATP were added prior to the addition of Pfnek-1 to start the kinase reaction. Approximately 5 μCi of γ[^33P]-ATP was used per reaction. After incubation at 30 °C for 30 min, each solution was blotted on a phosphocellulose filter paper (P81 Whatman-cation exchange chromatography paper). After four washes with 1% H3PO4 at, the remaining radioactivity was measured using a liquid scintillation analyzer Packard 1600TR. The IC50 is defined as the concentration of compound which inhibits 50% of enzyme activity compared to the control (reaction in the absence of inhibitor).

Escherichia coli = experiment: Antibacterial disc growth inhibition test, E. coli; assay type: cell-based
Description: Activity was evaluated by the standard […] with human pathogenic Staphylococcus aureus and Escherichia coli at 100 μg/disc for a disc of 6 mm diameter (Table 3). […] Bromotyrosine metabolites have already been reported as antibacterials.

[2] = tested on: chloroquine-resistant Plasmodium falciparum strain FcB1; set-up: method as in PMID 15124089; conditions: isolated from leaves of Glossocalyx brevipes; cited from earlier work
[3] = 100 μg/disc, disc of 6 mm diameter
[4] = GST-Pfnek-1, β-casein substrate, 30 °C, 30 min
[5] = Plasmodium falciparum, FcB1 strain, 48 h incubation, LDH readout
[6] = FcB1 strain, 48 h incubation, LDH readout

Compound | Pfnek-1 inhibitory activity (in words) (Pfnek-1) | IC50 (Pfnek-1; [4]) | IC50 [1, 5] | also measured
COC1=C(Br)[C@H](O)[C@@]2(C=C1Br)CC(C(=O)NCCCOc1c(Br)cc(CCNC(=O)C3=NO[C@]4(C=C(Br)C(OC)=C(Br)[C@@H]4O)C3)cc1Br)=NO2 | inactive | > 50 µM |  | Antibacterial activity against S. aureus (in words) (Staphylococcus aureus; 100 μg/disc): strong antibacterial activities; Growth inhibition diameter, S. aureus (Staphylococcus aureus; [3]): 14 mm; IC50 ([1]; Plasmodium falciparum, FCB1, 48 h): > 100 µM; Antibacterial activity against E. coli (in words) (Escherichia coli; 100 μg/disc): strong antibacterial activities; Growth inhibition diameter, E. coli (Escherichia coli; [3]): 16 mm
CC(C)=CCCC(C)=CCC1(CC(=O)O)CC(O)C=CC1=O (stereo not drawn) [2-(1′β-geranyl-5′β-hydroxy-2′-oxocyclohex-3′-enyl)acetic acid] |  |  |  | Activity against P. falciparum (in words) [2]: modest activities
COC1=C(Br)[C@H](O)[C@@]2(C=C1Br)CC(C(=O)NCCCOc1c(Br)cc(C(O)CNC(=O)C3=NO[C@]4(C=C(Br)C(OC)=C(Br)[C@@H]4O)C3)cc1Br)=NO2 (stereo partly shown) [Compound 2, 11-deoxyfistularin-3] | inactive | > 50 µM | > 100 µM | Growth inhibition diameter, S. aureus (Staphylococcus aureus; [3]): 0 mm; Growth inhibition diameter, E. coli (Escherichia coli; [3]): 0 mm
COC(=O)Cc1c(O)cc(Br)c(O)c1Br [Compound 4a, Methyl (2,4-dibromo-3,6-dihydroxyphenyl)acetate] | most active | ~1.8 µM | 12 µM | Antibacterial activity against S. aureus (in words) (Staphylococcus aureus; 100 μg/disc): inactive; Growth inhibition diameter, S. aureus (Staphylococcus aureus; [3]): 0 mm; Antiplasmodial activity against FcB1 P. falciparum (in words) [1]: moderately active; Pfnek-1 activity of 4a relative to 4b (Pfnek-1): five times more active; Antibacterial activity against E. coli (in words) (Escherichia coli; 100 μg/disc): inactive; Growth inhibition diameter, E. coli (Escherichia coli; [3]): 0 mm
COC(=O)Cc1cc(O)c(Br)cc1O [Compound 4b, Methyl (4-bromo-3,6-dihydroxyphenyl)acetate] | moderately active | 10 µM | 26 µM | 
O=C1Cc2cc(O)ccc2O1 [Compound 5, 5-Hydroxy-3H-benzofuran-2-one] |  |  | 29 µM | IC50 (Pfnek-1): > 50 µM
O=C1Cc2c(cc(Br)c(O)c2Br)O1 [Compound 6a, 4,6-Dibromo-5-hydroxy-3H-benzofuran-2-one] | inactivity | > 50 µM | 35 µM | 
O=C1Cc2cc(O)c(Br)cc2O1 [Compound 6b, 6-bromo-5-hydroxy-3H-benzofuran-2-one] | inactivity | > 50 µM | 17 µM | 
COC(=O)Cc1cc(O)ccc1O [Compound 8, Methyl (2,5-dihydroxyphenyl)acetate] | inactive | > 50 µM | 36 µM | 
COC(=O)Cc1cc(Br)c(O)c(Br)c1O [Compound 12, Methyl (3,5-dibromo-2,4-dihydroxyphenyl)acetate] | inactive | > 50 µM | > 100 µM | Antiplasmodial activity against FcB1 P. falciparum (in words) [1]: inactive
O=C(N[C@H](CO)[C@H](O)c1ccc([N+](=O)[O-])cc1)C(Cl)Cl [chloramphenicol, reference compound] |  |  |  | Growth inhibition diameter, E. coli (Escherichia coli; 30 μg/disc): 17 mm
COC(=O)CC1(CC=C(C)CCC=C(C)C)CC(O)C=CC1=O (stereo not drawn) [methyl 2-(1′β-geranyl-5′β-hydroxy-2′-oxocyclohex-3-enyl)acetate] |  |  |  | Activity against P. falciparum (in words) [2]: modest activities
Methyl (3,6-dibenzoyl-2,4-dibromophenyl)acetate [Compound 13a] | inactivity | > 50 µM |  | IC50 [1, 6]: 22.5 µM
Methyl (3,6-dibenzoyl-4-bromophenyl)acetate [Compound 13b] | inactivity | > 50 µM |  | IC50 [1, 6]: 13 µM
gentamycin [reference compound] |  |  |  | Growth inhibition diameter, S. aureus (Staphylococcus aureus; 10 μg/disc): 16 mm

— publication PMC2810230, “Antiplasmodial Activities of Homogentisic Acid Derivative Protein Kinase Inhibitors Isolated from a Vanuatu Marine Sponge Pseudoceratina sp” (Marine Drugs, 2009)
